Measurements published in PubChem BioAssay (NCI).
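Exposure lasted 48 hours, with cells grown in 96-well plates and compounds tested at five concentrations. TGI is the concentration that stops growth completely.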

Tests used:
Test in all cases: inhibition of tumour cell growth, NCI panel, 48 h
[1] = tested on: IGROV1 ovarian
[2] = tested on: ACHN renal
[3] = tested on: U251 CNS
[4] = tested on: SN12C renal
[5] = tested on: COLO 205 colon
[6] = tested on: SF-268 CNS
[7] = tested on: OVCAR-4 ovarian
[8] = tested on: CAKI-1 renal
[9] = tested on: OVCAR-3 ovarian
[10] = tested on: NCI-H23 lung
[11] = tested on: HOP-62 NSCLC
[12] = tested on: SW-620 colon
[13] = tested on: LOX IMVI melanoma
[14] = tested on: OVCAR-8 ovarian
[15] = tested on: NCI-H522 lung
[16] = tested on: MALME-3M melanoma
[17] = tested on: SK-MEL-2 melanoma
[18] = tested on: UACC-62 melanoma
[19] = tested on: SR leukemia
[20] = tested on: HCT-15 colon

Row | Structure (SMILES) | TGI [1] | TGI [2] | TGI [3] | TGI [4] | TGI [5] | TGI [6] | TGI [7] | TGI [8] | TGI [9] | TGI [10] | TGI [11] | TGI [12] | TGI [13] | TGI [14] | TGI [15] | TGI [16] | TGI [17] | TGI [18] | TGI [19] | TGI [20]
1 | COc1c2c(c3ccccc3c1O)C1C=CC2C1 (stereo not given) | 39 µM | 27.5 µM | 23.9 µM | 28.5 µM | 30.1 µM | 33.7 µM | 28.7 µM | 30.8 µM | 27.6 µM | 28.9 µM | 29.7 µM | 34.3 µM | 17.1 µM | 28.7 µM | 29.3 µM | 18.8 µM | 31.5 µM | 30.4 µM | 68.4 µM | 22 µM
2 | Nc1[nH]nc2nc3ccccc3nc12 | 99.2 µM | > 100 µM | > 100 µM | > 100 µM | > 100 µM | > 100 µM | > 100 µM | > 100 µM | > 100 µM | > 100 µM | > 100 µM | > 100 µM | > 100 µM | > 100 µM | > 100 µM | > 100 µM | > 100 µM | > 100 µM | 75.2 µM | > 100 µM
